Assay results taken from ChEMBL document CHEMBL1201862, “PubChem BioAssay data set” (2004).
Calls of active or inactive are those of the source.

Tests used:
Type in all cases: functional
BJ = assay: cytotoxicity toward Ras-transformed BJeLR fibroblasts, dose response, cell-based, alamar blue fluorescence, cherrypicked samples (AID 2631); settings: Homo sapiens;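 also: confirmatory dose-response assay in RAS-dependent BJ fibroblasts engineered with TERT, LT and ST, with cytotoxicity read by fluorescence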
[1] = target: T1, High affinity choline transporter 1 (Homo sapiens, UniProt Q9GZV3); assay: CHT inhibitors, dose response, cell-based, 5-point CRC, membrane potential dye (AID 504840)
T1 sequence (Q9GZV3 whole entry): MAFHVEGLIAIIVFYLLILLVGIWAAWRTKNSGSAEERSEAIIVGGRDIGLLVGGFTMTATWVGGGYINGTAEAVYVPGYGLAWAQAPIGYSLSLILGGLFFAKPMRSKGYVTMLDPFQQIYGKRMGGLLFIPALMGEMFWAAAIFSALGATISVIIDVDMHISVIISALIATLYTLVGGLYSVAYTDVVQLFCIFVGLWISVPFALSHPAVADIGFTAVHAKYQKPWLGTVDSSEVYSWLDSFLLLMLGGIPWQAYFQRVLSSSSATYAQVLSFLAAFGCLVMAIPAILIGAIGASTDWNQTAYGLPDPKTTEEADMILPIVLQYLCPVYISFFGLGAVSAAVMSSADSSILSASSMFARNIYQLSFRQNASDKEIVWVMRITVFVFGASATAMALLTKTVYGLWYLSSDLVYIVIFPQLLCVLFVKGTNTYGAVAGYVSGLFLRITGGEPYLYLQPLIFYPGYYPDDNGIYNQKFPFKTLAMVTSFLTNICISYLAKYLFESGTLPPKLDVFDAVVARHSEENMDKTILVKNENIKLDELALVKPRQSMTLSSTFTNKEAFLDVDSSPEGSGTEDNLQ

[2] = target: T1, High affinity choline transporter 1; assay: CHT inhibitors, dose response, cell-based, 10-point CRC, membrane potential dye (AID 588401);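 also: membrane potential dye fluorescence of choline-evoked depolarization via CHT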
[3] = target: T1, High affinity choline transporter 1; assay: inhibitors of CHT choline uptake, dose response, cell-based, 3H-choline uptake, CHT LV-AA trafficking mutant, CRC (AID 602208)
[4] = target: Beta-2 adrenergic receptor (Homo sapiens, UniProt P07550); assay: beta2AR agonists driving receptor internalization, dose response, cell-based, FAP fluorogen, flow cytometry, cherry pick 1 (AID 588763)
Chain of Beta-2 adrenergic receptor (P07550 whole entry): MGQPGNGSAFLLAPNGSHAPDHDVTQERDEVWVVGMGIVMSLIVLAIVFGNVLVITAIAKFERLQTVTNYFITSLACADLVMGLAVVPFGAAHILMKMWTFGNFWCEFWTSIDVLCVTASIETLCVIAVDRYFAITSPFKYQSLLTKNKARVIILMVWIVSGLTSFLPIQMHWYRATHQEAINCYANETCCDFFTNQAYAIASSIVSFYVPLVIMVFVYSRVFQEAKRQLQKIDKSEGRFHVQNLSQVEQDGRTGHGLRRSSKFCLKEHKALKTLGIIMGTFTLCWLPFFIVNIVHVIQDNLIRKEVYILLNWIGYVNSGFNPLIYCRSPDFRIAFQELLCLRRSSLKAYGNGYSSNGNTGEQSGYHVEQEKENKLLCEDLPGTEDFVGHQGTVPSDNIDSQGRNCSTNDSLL

Phospholipase D1 = Phospholipase D1 (Homo sapiens, UniProt Q13393); assay: PLD1 inhibitor potency in cells, dose response (AID 602151);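 also: cellular PLD1 assay in Calu-1 cells stimulated with PMA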
Chain of Phospholipase D1 (Q13393 whole entry): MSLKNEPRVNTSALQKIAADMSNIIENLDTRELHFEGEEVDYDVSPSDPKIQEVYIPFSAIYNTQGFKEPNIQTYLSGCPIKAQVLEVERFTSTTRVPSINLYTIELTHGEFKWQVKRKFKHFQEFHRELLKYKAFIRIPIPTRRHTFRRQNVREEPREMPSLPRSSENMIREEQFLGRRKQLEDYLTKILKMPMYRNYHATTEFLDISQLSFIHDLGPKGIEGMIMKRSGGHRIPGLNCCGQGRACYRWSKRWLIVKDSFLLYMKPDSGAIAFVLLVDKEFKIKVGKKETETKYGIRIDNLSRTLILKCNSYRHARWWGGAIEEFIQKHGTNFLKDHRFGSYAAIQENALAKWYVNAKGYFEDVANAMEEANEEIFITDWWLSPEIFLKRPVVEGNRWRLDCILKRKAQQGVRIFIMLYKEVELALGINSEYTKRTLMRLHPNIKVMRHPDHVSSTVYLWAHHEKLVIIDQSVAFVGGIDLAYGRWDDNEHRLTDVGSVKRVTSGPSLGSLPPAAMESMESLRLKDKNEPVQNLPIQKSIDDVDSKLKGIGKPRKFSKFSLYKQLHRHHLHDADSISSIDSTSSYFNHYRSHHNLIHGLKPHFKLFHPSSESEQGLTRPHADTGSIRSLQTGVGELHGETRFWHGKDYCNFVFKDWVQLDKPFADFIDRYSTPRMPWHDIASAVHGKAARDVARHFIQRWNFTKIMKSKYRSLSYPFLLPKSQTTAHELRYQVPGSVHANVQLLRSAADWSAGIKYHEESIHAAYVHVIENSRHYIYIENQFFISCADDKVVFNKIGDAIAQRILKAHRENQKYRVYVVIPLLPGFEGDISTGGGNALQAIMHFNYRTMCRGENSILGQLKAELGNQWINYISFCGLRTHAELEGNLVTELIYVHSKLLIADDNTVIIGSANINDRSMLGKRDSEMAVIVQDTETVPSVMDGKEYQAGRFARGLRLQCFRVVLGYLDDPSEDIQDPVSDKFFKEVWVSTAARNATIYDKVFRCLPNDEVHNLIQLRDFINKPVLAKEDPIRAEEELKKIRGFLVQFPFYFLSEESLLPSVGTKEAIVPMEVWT

Phospholipase D2 = Phospholipase D2 (Homo sapiens, UniProt O14939); assay: PLD2 inhibitor potency in cells, dose response (AID 602147);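 also: cellular assay in HEK293 cells overexpressing GFP-tagged PLD2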
Chain of Phospholipase D2 (O14939 whole entry): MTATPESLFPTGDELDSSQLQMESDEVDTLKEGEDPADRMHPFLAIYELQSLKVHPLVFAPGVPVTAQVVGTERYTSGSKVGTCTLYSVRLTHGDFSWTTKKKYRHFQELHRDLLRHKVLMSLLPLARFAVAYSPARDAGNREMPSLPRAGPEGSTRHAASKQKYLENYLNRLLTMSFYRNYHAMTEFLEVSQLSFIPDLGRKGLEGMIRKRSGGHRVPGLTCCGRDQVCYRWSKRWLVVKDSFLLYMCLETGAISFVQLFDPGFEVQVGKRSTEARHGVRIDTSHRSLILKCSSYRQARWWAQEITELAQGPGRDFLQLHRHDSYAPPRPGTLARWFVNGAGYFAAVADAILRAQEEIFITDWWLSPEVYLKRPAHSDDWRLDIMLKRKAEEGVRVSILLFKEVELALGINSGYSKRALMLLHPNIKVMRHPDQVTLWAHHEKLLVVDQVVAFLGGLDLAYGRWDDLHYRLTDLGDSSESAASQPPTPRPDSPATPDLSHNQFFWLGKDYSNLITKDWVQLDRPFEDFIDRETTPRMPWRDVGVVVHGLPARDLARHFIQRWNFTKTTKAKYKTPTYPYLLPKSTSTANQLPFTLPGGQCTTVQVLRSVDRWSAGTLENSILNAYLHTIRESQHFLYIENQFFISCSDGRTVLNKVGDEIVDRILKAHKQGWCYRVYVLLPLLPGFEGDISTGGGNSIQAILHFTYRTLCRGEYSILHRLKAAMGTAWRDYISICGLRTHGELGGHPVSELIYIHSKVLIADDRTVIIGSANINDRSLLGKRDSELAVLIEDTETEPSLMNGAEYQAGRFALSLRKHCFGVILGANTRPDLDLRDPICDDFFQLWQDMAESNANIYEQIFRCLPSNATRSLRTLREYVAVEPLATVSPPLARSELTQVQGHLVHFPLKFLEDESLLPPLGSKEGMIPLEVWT

Melanocortin receptor 4 = Melanocortin receptor 4 (Homo sapiens, UniProt P32245); assay: MC4R antagonist potency on cAMP, dose response, cell-based, TR-FRET, biased antagonists (AID 602298);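 also: antagonist potency against agonist-stimulated cAMP production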
Chain of Melanocortin receptor 4 (P32245 whole entry): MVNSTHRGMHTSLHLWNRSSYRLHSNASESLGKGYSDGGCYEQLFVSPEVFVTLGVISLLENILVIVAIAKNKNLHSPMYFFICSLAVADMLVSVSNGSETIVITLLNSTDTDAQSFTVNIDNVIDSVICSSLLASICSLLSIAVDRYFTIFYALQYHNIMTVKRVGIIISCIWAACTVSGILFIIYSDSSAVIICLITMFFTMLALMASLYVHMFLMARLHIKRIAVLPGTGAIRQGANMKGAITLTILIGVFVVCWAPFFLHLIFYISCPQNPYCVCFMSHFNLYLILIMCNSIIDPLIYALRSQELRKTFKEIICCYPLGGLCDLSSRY

[5] = nonselective inhibitors of cellular cAMP signaling, dose response, counter-screen for MC4R biased antagonist project, cell-based, TR-FRET cAMP detection (AID 602305);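 also: U2OS cells stimulated with forskolin near its EC80 as the cAMP inducer; potency is for inhibition of forskolin-stimulated cAMP signaling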
[6] = target: T2, Calpain-2 catalytic subunit (Sus scrofa, UniProt P43367); assay: pig calpain II inhibitor potency, dose response, biochemical, fluorogenic peptide substrate (AID 1420)
T2 sequence (P43367 whole entry): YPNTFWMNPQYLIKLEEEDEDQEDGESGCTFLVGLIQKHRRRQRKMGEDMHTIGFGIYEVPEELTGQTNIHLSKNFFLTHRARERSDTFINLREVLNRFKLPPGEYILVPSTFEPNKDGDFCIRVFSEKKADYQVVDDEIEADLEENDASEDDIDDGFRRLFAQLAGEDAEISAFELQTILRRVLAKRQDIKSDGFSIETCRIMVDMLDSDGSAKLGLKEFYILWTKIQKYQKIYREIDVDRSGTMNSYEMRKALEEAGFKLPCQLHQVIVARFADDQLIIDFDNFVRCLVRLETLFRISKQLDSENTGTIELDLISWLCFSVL

[7] = target: T3, Microphthalmia-associated transcription factor (Homo sapiens, UniProt O75030); assay: TRPM1 promoter luciferase signal decrease, dose response, MITF inhibitor project, cell-based, SK-MEL-5, cherry-picked, set 3 (AID 493073)
T3 sequence (O75030 whole entry): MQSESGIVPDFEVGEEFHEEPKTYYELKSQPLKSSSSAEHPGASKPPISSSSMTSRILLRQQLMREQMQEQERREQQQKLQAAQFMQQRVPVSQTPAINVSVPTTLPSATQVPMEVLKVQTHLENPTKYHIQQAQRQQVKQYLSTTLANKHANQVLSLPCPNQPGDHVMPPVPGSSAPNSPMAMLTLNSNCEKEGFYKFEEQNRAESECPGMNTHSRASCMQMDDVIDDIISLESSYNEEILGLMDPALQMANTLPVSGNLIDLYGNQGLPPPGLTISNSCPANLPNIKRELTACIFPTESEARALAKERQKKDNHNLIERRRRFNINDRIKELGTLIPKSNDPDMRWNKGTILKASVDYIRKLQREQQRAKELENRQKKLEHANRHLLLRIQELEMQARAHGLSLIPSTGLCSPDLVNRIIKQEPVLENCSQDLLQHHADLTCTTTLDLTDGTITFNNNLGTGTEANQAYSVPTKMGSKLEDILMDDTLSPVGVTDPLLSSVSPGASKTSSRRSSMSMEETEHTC

[8] = target: T4, Replicative DNA helicase DnaB (Mycobacterium tuberculosis, UniProt P9WMR3); assay: DnaB intein splicing inhibitors, dose response, biochemical, cell-free fluorescence (AID 449749)
T4 sequence (P9WMR3 whole entry): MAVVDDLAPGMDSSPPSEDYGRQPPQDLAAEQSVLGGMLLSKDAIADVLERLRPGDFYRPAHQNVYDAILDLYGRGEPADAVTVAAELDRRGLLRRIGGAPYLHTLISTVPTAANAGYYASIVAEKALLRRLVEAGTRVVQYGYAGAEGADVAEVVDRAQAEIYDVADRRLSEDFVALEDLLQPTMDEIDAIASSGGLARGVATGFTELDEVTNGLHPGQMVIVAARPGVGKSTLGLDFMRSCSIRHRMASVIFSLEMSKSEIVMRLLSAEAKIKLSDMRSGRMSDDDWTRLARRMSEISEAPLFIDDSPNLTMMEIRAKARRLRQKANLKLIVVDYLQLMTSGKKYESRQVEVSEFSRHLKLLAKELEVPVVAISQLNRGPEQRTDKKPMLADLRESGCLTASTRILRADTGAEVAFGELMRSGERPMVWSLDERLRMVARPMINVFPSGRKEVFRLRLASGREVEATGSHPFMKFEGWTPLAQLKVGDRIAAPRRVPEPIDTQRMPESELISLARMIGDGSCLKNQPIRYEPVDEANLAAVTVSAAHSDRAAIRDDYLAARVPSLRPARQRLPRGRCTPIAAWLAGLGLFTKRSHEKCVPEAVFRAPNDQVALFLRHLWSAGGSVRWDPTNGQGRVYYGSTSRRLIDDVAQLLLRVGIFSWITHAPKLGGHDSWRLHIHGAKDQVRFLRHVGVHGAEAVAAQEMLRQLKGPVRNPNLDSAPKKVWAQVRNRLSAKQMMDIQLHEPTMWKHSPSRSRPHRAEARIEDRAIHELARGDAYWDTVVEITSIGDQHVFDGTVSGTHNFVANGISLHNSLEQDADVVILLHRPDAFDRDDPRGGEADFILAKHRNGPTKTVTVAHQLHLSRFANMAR

Protein RecA = target: T5, Protein RecA (Mycobacterium tuberculosis, UniProt P9WHJ3); assay: Fluorescence Cell-Free Homogeneous Dose Retest to Identify Inhibitors of RecA-Intein Splicing Activity. [Related pubchem assays (depositor defined):AID2097, AID2223, AID489010, AID492950]
T5 sequence (P9WHJ3 whole entry): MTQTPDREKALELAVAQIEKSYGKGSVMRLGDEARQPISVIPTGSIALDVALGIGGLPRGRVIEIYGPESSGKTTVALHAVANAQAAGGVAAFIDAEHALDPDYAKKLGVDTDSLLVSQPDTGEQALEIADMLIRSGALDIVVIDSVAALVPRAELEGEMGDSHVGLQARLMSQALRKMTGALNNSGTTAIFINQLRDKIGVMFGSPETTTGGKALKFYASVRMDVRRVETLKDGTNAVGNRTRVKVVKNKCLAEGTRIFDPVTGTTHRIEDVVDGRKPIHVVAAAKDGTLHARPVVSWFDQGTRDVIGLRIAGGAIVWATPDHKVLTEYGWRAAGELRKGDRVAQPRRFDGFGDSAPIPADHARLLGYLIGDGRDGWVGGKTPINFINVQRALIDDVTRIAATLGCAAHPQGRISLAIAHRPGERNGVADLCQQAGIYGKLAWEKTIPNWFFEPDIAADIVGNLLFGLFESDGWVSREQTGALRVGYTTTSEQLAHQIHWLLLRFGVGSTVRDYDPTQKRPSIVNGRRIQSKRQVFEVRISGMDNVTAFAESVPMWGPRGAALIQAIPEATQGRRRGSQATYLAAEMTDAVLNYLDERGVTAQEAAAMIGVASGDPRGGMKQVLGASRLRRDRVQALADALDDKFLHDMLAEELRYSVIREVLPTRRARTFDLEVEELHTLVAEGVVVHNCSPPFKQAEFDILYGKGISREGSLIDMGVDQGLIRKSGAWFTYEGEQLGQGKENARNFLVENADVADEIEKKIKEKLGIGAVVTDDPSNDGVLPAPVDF

[9] = target: Mitochondrial peptide methionine sulfoxide reductase (Bos taurus, UniProt P54149); assay: Absorbance-based biochemical high throughput dose response assay for activators of Methionine sulfoxide reductase A (MsrA).
Chain of Mitochondrial peptide methionine sulfoxide reductase (P54149 whole entry): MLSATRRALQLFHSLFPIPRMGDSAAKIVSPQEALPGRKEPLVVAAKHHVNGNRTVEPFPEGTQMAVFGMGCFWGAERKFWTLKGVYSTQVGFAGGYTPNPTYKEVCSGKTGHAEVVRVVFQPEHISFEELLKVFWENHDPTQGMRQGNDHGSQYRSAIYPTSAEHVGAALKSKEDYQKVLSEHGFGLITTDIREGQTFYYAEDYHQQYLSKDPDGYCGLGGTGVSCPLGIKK

For `C=C1C(=O)O[C@@H]2C[C@@H](C)[C@H]3C=CC(=O)[C@]3(O)C[C@@H]12`, the EC50 (BJ) was 3.09 µM (active).

With `COc1ccc(C(=O)NC(C)Cc2cnccn2)cc1OC1CCN(C(C)C)CC1` (stereo unspecified) the IC50 [1] was 9.9 µM (active), the IC50 [2] was 4.47 µM (active) and the IC50 [3] was 7.51 µM (active).

In the case of `CC1(C)Cc2c(c(N3CCOCC3)nc3sc4c(NCCN)ncnc4c23)CO1`, the EC50 [4] was 0.158 µM (active).

In the case of `CC(C)[C@@H](CN1CCC(n2c(=O)[nH]c3ccccc32)CC1)NC(=O)c1ccc2ccccc2c1`, the IC50 (Phospholipase D1) was 5.6 µM (active) and the IC50 (Phospholipase D2) was 20 µM (active).

In the case of `CSCCC(NC(=O)c1cccc(C)c1)C(=O)OCN1C(=O)c2ccccc2C1=O` (stereo unspecified), the IC50 (Melanocortin receptor 4) was > 21.5 µM (inactive) and the IC50 [5] was > 64.6 µM (inactive).

In the case of `Cc1ccc(C(=O)N[C@@H](C)CN2CCC(n3c(=O)[nH]c4ccc(F)cc43)CC2)cc1`, the IC50 (Phospholipase D1) was 0.008 µM (active) and the IC50 (Phospholipase D2) was 0.18 µM (active).

In the case of `CCNC1=C(Cl)C(=O)c2ccccc2C1=O`, the IC50 [6] was > 50 µM (not active), the AC50 [7] was 3.84 µM (active) and the AC50 [8] was 6.98 µM (active). For the same compound, the EC50 (Protein RecA) was 20 µM (active) and the EC50 [9] was > 104 µM (inactive).
